# Legend:
# NLRP3 [1] = molecular target: T1, NLRP3 (Mus musculus, UniProt Q8R4B8); experiment: NLRP3 inflammasome assay: IL-1β secretion from LPS-primed, ATP-stimulated murine BMDM (Table 1); assay type: cell-based, murine (C57BL/6 mice); conditions: ATP 2.5 mM 1 h, ELISA, read-out: IC50 (NLRP3 inhibitory activity)
# T1 construct: Macrophages from C57BL/6 mice were differentiated from bone marrow; endogenous in cells; host or cells: primary bone marrow-derived macrophages (BMDM) from C57BL/6 mice
# T1 sequence (Q8R4B8 whole entry): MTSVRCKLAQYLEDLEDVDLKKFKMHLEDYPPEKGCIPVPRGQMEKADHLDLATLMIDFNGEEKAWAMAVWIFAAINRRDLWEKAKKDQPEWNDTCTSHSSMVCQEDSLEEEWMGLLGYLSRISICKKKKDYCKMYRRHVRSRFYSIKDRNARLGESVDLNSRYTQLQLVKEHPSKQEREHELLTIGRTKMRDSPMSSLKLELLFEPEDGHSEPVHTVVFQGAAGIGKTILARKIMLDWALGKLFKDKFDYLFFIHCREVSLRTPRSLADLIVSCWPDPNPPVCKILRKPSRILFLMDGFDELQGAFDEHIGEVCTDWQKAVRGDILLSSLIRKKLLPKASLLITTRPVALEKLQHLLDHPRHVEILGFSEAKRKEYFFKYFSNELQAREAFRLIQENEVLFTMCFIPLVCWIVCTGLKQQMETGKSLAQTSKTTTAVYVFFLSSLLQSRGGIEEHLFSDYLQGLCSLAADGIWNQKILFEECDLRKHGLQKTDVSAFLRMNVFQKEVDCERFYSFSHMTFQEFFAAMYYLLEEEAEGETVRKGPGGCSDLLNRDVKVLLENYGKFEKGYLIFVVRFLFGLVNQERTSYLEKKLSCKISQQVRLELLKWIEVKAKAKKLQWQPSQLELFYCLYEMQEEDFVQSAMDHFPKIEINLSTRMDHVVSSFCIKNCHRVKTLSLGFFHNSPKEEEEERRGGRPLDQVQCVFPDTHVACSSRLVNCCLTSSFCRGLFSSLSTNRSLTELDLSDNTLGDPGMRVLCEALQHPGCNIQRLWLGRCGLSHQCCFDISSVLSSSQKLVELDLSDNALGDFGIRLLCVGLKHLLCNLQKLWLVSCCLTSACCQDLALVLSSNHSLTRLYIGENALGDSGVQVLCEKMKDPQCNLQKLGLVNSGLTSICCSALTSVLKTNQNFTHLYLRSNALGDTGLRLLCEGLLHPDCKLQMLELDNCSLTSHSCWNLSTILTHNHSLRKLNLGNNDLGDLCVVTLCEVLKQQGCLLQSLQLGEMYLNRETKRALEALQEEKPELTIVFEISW
# Description: The NLRP3-inhibitory effect of a number of the above compounds was tested by measuring the IL-1β secretion from murine bone marrow derived macrophages (BMDM) primed with lipopolysaccharide (LPS), treated with test compound (to a maximum concentration of 200 μM) and finally stimulated with the NLRP3 stimulus ATP. The half-maximal inhibitory concentration (IC50) was determined for each compound and compared to a number of comparative examples (CE 1-10) including commercially available oral sulphonylureas (CE1-6) and the known NLRP3 inhibitor MCC 950 (CE7). The experimental protocol was as follows.
# The University of Queensland Animal Ethics Committee approved all experimental protocols involving mice.
# NLRP3 INFLAMMASOME ASSAY: BMDM were seeded at 1×10^6 cells/mL in 96 well plates. The following day the overnight medium was replaced with Opti-MEM® reduced serum medium (Life Technologies) and cells were stimulated with 100 ng/mL ultrapure E. coli K12 LPS (Invivogen) for 3 h. Compounds were prepared from a 10 mM stock by serial dilution in 80% DMSO/20% 10 mM ammonium bicarbonate. […] IL-1β levels in cell-free supernatants were analysed by ELISA (ReadySetGo!® eBioscience).
# MIN6 cells = experiment: MIN6 insulin assay (insulin secretion, radioimmunoassay); assay type: cell-based; conditions: 10 μM test compound, 2.8 mM glucose KRB, 1 h; FIG. 1
# Description: To confirm the insulinotropic properties of the compounds of the invention, their ability to stimulate insulin secretion from MIN6 cells at a single concentration (10 μM) was tested using the following protocol. The tests were conducted by the Garvan Institute of Medical Research, Sydney, Australia.
# MIN6 INSULIN ASSAY PROTOCOL: MIN6 cells (passage 29-37) were incubated for 1 h in Krebs-Ringer buffer (KRB) containing 2.8 mM glucose. The cells were then stimulated for 1 h in either 2.8 mM glucose KRB, 20 mM glucose KRB, or 2.8 mM glucose KRB plus test compound. Supernatants were collected and then assayed using rat insulin radioimmunoassay kit (RI-13K, Merck Millipore).
# NLRP3 [2] = molecular target: T2, NLRP3 (Homo sapiens, UniProt Q96P20); experiment: HMDM NLRP3 inflammasome assay, IL-1β secretion (Table 2); assay type: cell-based; conditions: human monocyte derived macrophages
# T2 construct: To generate HMDM, human monocytes are isolated from buffy coat blood; endogenous in cells; host or cells: human monocyte-derived macrophages (HMDM) from CD14+ buffy coat monocytes
# T2 sequence (Q96P20 whole entry): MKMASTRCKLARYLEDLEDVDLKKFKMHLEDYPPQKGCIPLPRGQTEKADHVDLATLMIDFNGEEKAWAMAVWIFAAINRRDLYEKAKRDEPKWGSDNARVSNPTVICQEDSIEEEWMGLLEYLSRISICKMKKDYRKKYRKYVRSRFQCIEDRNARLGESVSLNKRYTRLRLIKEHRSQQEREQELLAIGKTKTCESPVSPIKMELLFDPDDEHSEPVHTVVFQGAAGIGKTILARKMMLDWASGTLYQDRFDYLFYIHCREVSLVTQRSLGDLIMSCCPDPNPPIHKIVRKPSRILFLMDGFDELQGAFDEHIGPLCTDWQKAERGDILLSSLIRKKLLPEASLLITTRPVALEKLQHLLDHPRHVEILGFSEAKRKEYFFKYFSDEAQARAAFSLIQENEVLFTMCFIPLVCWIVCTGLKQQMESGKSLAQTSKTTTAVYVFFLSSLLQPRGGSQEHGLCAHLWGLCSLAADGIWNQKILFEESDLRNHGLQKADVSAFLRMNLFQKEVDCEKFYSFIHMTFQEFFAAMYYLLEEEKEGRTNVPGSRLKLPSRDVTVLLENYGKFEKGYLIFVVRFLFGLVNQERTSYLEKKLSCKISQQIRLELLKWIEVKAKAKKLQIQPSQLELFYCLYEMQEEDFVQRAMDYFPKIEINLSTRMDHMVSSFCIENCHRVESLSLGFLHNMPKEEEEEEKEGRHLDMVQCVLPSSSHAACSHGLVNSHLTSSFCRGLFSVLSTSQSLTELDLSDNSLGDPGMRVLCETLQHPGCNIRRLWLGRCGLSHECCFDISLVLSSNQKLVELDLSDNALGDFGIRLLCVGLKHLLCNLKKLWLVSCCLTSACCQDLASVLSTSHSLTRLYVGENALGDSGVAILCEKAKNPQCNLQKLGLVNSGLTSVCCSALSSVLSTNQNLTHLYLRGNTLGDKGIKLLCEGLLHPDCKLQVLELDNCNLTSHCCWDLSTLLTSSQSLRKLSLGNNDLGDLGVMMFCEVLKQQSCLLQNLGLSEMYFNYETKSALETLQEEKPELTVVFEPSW
# Description: HMDM CELL CULTURE: To generate HMDM, human monocytes are isolated from buffy coat blood using Ficoll-Plaque Plus (GE Healthcare) and density centrifugation. CD14^+ cell selection is performed using MACS magnetic beads (Miltenyl Biotec). […] 91, p.
# Medium is removed and replaced with serum free medium (SFM) containing test compound 30 min prior to NLRP3 stimulation. […] ATP can be sourced from Sigma Aldrich, nigericin and MSU from Invivogen and LeuLeu-Ome from Chem-Impex International.
# MEASUREMENT OF IL-1β SECRETION: For ELISA assays cells are seeded in 96 well plates. Supernatants are removed and analysed using ELISA kits according to the manufacturer's instructions (DuoSet® R&D Systems, ReadySetGo!® eBioscience, BD OptEIA™, or Perkin Elmer AlphaLISA®).
SMILES,IC50 (NLRP3 [1]) [nM],also measured
"CC(=O)c1ccc(S(=O)(=O)NC(=O)NC2CCCCC2)cc1 [CE1, Acetohexamide]",> 200000,
"Cc1cnc(C(=O)NCCc2ccc(S(=O)(=O)NC(=O)NC3CCCCC3)cc2)cn1 [CE3, Glipizide]",> 200000,
"Cc1cc(C(=O)NCCc2ccc(S(=O)(=O)NC(=O)NN3CCCCCC3)cc2)no1 [CE4, Glisoxepide]",> 50000,
"COc1ccc2c(c1)C(=O)N(CCc1ccc(S(=O)(=O)NC(=O)NC3CCCCC3)cc1)C(=O)C2(C)C [CE5, Gliquidone]",> 50000,
"CCC1=C(C)CN(C(=O)NCCc2ccc(S(=O)(=O)NC(=O)N[C@H]3CC[C@H](C)CC3)cc2)C1=O [CE6, Glimepiride]",> 50000,
"CC(C)(O)c1coc(S(=O)(=O)NC(=O)Nc2c3c(cc4c2CCC4)CCC3)c1 [CE7, MCC 950]",,insulin secretion from MIN6 cells (MIN6 cells): basal levels of insulin secretion
Nc1ccc(S(=O)(=O)NC(=O)Nc2c3c(cc4c2CCC4)CCC3)cc1 [CE8],< 1000,
O=C(Nc1c2c(cc3c1CCC3)CCC2)NS(=O)(=O)c1ccc2c(c1)CCC2 [CE9],< 1000,
O=C(Nc1c2c(cc3c1CCC3)CCC2)NS(=O)(=O)c1ccc([N+](=O)[O-])cc1 [CE10],< 1000,
"CC(=O)c1ccc(S(=O)(=O)NC(=O)Nc2c3c(cc4c2CCC4)CCC3)cc1 [Example 1, 4-Acetyl-N-((1,2,3,5,6,7-hexahydro-s-indacen-4-yl)carbamoyl) benzenesulfonamide]",< 1000,
"Cc1cnc(C(=O)NCCc2ccc(S(=O)(=O)NC(=O)Nc3c4c(cc5c3CCC5)CCC4)cc2)cn1 [Example 3, N-(4-(N-((1,2,3,5,6,7-Hexahydro-s-indacen-4-yl)carbamoyl)sulfamoyl)phenethyl)-5-methylpyrazine-2-carboxamide]",< 1000,
"O=C(Nc1c2c(cc3c1CCC3)CCC2)NS(=O)(=O)c1cccc(C(=O)O)c1 [Example 10, 3-(N-((1,2,3,5,6,7-Hexahydro-s-indacen-4-yl)carbamoyl)sulfamoyl)-benzoic acid]",,IC50 (NLRP3 [2]): < 1000 nM
"C#CCNC(=O)CCc1ccc(S(=O)(=O)NC(=O)Nc2c3c(cc4c2CCC4)CCC3)cc1 [Example 13, 3-(4-(N-((1,2,3,5,6,7-Hexahydro-s-indacen-4-yl)carbamoyl)sulfamoyl)-phenyl)-N-(prop-2-yn-1-yl)propanamide]",,IC50 (NLRP3 [2]): < 1000 nM

# Source: patent US11840543B2, “Compounds and uses” (The University of Queensland, priority 2017, dated 2023)
